Columns and labels:
CYP2B2 = biological target: T1, CYP2B2 (Rattus norvegicus, UniProt P04167); design: method as in Otten et al., 2011; conditions: CYP enzyme 2B2; cocktail probe substrate parameter, source not stated; ref Otten et al., 2011; cited from earlier work
T1 construct: and 1 mg/ml rat liver microsomes; from tissue; host or cells: rat liver microsomes
T1 sequence (P04167 1-491): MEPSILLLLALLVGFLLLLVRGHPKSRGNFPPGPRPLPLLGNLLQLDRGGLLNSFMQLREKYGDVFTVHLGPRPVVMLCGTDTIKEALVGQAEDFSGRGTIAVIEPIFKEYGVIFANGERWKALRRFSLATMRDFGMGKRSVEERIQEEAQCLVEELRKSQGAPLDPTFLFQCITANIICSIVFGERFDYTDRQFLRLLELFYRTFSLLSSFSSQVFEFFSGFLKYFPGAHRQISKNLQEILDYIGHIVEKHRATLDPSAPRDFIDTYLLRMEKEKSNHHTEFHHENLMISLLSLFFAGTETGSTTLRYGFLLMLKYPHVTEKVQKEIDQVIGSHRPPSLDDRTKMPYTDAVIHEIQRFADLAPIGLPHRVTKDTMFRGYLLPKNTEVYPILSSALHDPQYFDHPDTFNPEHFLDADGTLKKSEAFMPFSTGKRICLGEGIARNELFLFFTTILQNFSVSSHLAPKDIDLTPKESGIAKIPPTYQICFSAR

rat liver microsomes = experiment: Formation of 7,9-diGS-DHP from RTS in rat liver microsomes; assay type: biochemical; conditions: KCZ 25 µM; 1 mg/ml rat liver microsomes, 200 µM RTS
Protocol: The injection volume was 3 μL. […] The injection volume was 5 µL.

CYP1A2 = conditions: CYP enzyme 1A2; cocktail probe substrate parameter, source not stated; ref Otten et al., 2011; cited from earlier work
CYP2D1 = biological target: T2, CYP2D1 (Rattus norvegicus, UniProt P10633); design: method as in Otten et al., 2011; conditions: CYP enzyme 2D1; cocktail probe substrate parameter, source not stated; ref Otten et al., 2011; cited from earlier work
T2 construct: and 1 mg/ml rat liver microsomes; from tissue; host or cells: rat liver microsomes
T2 sequence (P10633 1-504): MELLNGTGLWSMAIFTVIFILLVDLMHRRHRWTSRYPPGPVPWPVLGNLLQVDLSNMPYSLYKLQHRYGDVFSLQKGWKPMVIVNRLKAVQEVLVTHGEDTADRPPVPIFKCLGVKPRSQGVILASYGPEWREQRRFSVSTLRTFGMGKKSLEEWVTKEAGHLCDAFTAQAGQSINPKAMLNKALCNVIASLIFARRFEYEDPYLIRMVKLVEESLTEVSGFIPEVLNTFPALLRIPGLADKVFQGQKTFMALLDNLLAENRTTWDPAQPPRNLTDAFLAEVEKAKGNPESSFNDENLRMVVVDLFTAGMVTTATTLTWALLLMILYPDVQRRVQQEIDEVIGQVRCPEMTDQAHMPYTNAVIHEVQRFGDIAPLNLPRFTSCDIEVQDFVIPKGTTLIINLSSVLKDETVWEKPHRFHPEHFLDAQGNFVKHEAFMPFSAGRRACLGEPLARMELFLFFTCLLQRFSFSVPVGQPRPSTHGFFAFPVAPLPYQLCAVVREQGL

[1] = tested on: bacterial ß-D-glucuronidase; design: method as in Takeda et al., 1996; conditions: gastrointestinal tract, after oral administration; ref Takeda et al., 1996; cited from earlier work
CYP2C11 = biological target: T3, CYP2C11 (Rattus norvegicus, UniProt P08683); design: method as in Otten et al., 2011; conditions: CYP enzyme 2C11; cocktail probe substrate parameter, source not stated; ref Otten et al., 2011; cited from earlier work
T3 construct: and 1 mg/ml rat liver microsomes; from tissue; host or cells: rat liver microsomes
T3 sequence (P08683 1-500): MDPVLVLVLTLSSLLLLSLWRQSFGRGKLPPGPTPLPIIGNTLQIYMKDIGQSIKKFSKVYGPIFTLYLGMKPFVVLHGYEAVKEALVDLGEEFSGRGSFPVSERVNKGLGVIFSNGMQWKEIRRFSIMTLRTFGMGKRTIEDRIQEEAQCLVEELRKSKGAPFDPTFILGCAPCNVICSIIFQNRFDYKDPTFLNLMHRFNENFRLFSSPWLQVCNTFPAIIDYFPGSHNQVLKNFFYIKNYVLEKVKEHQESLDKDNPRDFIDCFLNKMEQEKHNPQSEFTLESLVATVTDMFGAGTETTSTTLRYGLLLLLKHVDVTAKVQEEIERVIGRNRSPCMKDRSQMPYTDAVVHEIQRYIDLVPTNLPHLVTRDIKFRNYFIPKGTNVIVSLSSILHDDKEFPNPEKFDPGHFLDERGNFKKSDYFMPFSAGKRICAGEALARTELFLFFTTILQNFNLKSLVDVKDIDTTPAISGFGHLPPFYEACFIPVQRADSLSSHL

CYP2A2 = biological target: T4, CYP2A2 (Rattus norvegicus, UniProt P15149); design: method as in Otten et al., 2011; conditions: CYP enzyme 2A2; cocktail probe substrate parameter, source not stated; ref Otten et al., 2011; cited from earlier work
T4 construct: and 1 mg/ml rat liver microsomes; from tissue; host or cells: rat liver microsomes
T4 sequence (P15149 whole entry): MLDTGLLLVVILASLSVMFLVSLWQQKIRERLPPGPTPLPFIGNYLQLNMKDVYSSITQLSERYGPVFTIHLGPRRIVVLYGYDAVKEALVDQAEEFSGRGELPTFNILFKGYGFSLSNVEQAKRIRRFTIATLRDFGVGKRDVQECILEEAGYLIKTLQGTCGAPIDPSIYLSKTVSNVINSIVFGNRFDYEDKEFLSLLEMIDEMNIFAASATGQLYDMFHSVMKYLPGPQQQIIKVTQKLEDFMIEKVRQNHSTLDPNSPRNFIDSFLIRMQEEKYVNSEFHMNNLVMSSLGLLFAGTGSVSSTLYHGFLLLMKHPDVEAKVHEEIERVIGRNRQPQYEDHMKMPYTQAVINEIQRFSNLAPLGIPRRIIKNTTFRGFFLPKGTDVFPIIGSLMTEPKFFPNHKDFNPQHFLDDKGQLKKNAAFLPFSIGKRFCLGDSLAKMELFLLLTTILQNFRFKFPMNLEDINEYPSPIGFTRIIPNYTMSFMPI

## CC(NC(C)(C)C)C(=O)c1cccc(Cl)c1 (stereo not shown) [Bupropion]
CYP2B2
  Km: 67 to 168 µM

## CC(=O)N1CCN(c2ccc(OCC3COC(Cn4ccnc4)(c4ccc(Cl)cc4Cl)O3)cc2)CC1 (stereo not shown) [KCZ, ketoconazole]
Rat liver microsomes
  reduction of the formation of 7,9-diGS-DHP: 62%

## CCOc1ccc(NC(C)=O)cc1 [Phenacetin]
CYP1A2
  Km: 1.7 to 152 µM

## COc1ccc2c(c1)[C@]13CCCC[C@@H]1[C@H](C2)N(C)CC3 [Dextromethorphan]
CYP2D1
  Km: 0.4 to 8.5 µM

## CC1(C)[C@@H](O[C@H]2O[C@H](C(=O)O)[C@@H](O)[C@H](O)[C@H]2O[C@@H]2O[C@H](C(=O)O)[C@@H](O)[C@H](O)[C@H]2O)CC[C@]2(C)[C@H]3C(=O)C=C4[C@@H]5C[C@@](C)(C(=O)O)CC[C@]5(C)CC[C@@]4(C)[C@]3(C)CC[C@@H]12 [GL, Glycyrrhizin]
[1]
  fraction of GL irreversibly transformed into 18β-GA: ~100%

## CC[C@@]1(c2ccccc2)NC(=O)N(C)C1=O [S-Mephenytoin]
CYP2C11
  Km: 13 to 35 µM

## O=c1ccc2ccccc2o1 [Coumarin]
CYP2A2
  Km: 0.3 to 2.3 µM

From PMC8966664 (Frontiers in Pharmacology, 2022)
